Measurements from publication PMC10914731, “Homo-BacPROTAC-induced degradation of ClpC1 as a strategy against drug-resistant mycobacteria” (Nature Communications, 2024).
Values joined by “and” are separate entries in the source; they are usually repeats but may differ in a detail not shown here. Equal entries are not always repeated. Where two headings read alike, the source gives them in different places. *1 amine or outer side, *2 acyl side, *3 side chain or, on linkers, in order; H or OH if unused. Where a SMILES comes first, the peptide text is derived from it. Bridges are numbered along the chain shown (N, C = ends). Roman numbers before positions name the chains, in order. [ ]: non-standard residue; d: D form. X6 = O=C([C@@H](N[*:1])[C@H](OCC=[*:3])c1ccccc1)[*:2]; NMeLeu(5-OH,4R) = CN[C@@H](C[C@@H](C)CO)C(=O)O; Trp(1-Me) = Cn1cc(C[C@H](N)C(=O)O)c2ccccc21; NMeL = CN[C@@H](CC(C)C)C(=O)O

How the values were obtained:
[1] = target: ClpC1 NTD protein (M. tuberculosis) (Mycobacterium tuberculosis, UniProt P9WPC9); assay: biochemical; format: binding
in vitro = details: human
Method in brief: (§1)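 Values are bidirectional Caco-2 apparent permeabilities, P(A−B) and P(B−A), given in 10^-6 cm s-1. The efflux ratio divides P(B−A) by P(A−B), and intrinsic permeability averages the two directions.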

Caco-2 monolayers = assay: in vitro; details: mean value of P(A−B) and P(B−A)
Method in brief: as §1

[2] = format: in vitro ADME, Mice
Method in brief: (§2)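 Read-out: parent loss by HPLC-MS/MS, first-order fit, half-life scaled to %Qh (well-stirred liver model). Conditions: 1 µmol/l cpd, 0.5 mg/ml microsomes, 100 mM Tris-HCl pH 7.5, 6.5 mM MgCl2, 1 mM NADPH, 37 °C; acetonitrile stop at multiple times.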

[3] = format: in vitro ADME, Rat
Method in brief: as §2

[4] = Microsomal stability, human; format: in vitro ADME
Method in brief: as §2

[5] = Hepatocyte stability, mice; format: in vitro ADME
Method in brief: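 1 µM cpd (DMSO <0.05% final), cryopreserved hepatocytes ~1e6 cells/mL, 50% serum, pH 7.4, 37 °C/5–10% CO2; up to 6 h, 6 timepoints; ACN quench, HPLC-MS/MS; t1/2 → CL via well-stirred model, % Qh.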

[6] = format: in vitro ADME, Rat; remark: listed apart in the source
[7] = target: His6-tagged ClpC1-NTD substrate, M. smegmatis ClpC1P1P2 (UniProt A0R574+P9WPC9); assay: biochemical; format: biochemical; details: Msm; Measurement 1-6; read-out: 1-Dmax, single measurements
[8] = target: ClpC1-NTD substrate, M. tuberculosis ClpC1P1P2 (Mycobacterium tuberculosis, UniProt P9WPC9); assay: biochemical; format: biochemical; details: Mtb
[9] = result in words

Chain of ClpC1 NTD protein (M. tuberculosis) (P9WPC9 1-156, looked up, natural form): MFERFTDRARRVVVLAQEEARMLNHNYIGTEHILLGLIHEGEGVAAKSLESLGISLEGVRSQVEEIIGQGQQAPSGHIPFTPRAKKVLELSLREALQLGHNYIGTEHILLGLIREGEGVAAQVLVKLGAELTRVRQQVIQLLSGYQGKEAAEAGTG
Chain of ClpC1-NTD substrate, M. tuberculosis ClpC1P1P2 (P9WPC5 whole entry): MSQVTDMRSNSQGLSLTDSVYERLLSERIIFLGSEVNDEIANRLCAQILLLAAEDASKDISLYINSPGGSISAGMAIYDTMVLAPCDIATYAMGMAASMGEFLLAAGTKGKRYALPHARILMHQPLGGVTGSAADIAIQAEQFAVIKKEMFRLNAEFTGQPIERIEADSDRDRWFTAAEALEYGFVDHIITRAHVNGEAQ
Chain of ClpC1-NTD substrate, M. tuberculosis ClpC1P1P2 (P9WPC9 whole entry): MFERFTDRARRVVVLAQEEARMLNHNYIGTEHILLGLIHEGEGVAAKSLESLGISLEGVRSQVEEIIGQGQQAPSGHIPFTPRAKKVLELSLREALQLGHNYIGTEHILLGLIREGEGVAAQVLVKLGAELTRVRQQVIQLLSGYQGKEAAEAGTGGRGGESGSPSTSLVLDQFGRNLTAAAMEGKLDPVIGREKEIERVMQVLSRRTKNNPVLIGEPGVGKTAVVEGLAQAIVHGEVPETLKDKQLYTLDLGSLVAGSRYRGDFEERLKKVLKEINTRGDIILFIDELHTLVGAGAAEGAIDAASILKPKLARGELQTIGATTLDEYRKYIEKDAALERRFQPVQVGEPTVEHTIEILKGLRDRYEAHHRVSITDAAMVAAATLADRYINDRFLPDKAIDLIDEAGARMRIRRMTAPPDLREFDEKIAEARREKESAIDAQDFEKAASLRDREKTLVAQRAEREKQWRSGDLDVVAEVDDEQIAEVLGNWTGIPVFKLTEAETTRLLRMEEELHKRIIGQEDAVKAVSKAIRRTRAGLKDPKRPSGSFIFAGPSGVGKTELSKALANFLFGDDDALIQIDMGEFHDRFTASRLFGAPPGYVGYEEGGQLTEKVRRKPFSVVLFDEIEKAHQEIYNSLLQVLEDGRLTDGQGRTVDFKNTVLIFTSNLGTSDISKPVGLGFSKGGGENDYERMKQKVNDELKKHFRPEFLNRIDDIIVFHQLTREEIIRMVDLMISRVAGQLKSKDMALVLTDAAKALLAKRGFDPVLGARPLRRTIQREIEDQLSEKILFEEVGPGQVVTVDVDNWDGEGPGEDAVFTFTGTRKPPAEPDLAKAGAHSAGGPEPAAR
Chain of ClpC1-NTD substrate, M. tuberculosis ClpC1P1P2 (P9WPC3 whole entry, further chain): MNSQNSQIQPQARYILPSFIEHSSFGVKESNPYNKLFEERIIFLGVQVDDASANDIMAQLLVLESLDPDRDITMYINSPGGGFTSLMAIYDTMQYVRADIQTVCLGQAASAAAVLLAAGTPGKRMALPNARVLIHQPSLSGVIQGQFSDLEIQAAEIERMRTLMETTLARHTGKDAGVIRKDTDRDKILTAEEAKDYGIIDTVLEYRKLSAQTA
Chain of His6-tagged ClpC1-NTD substrate, M. smegmatis ClpC1P1P2 (P9WPC9 1-156, looked up, natural form): as the sequence (P9WPC9 1-156, looked up, natural form) above
Chain of His6-tagged ClpC1-NTD substrate, M. smegmatis ClpC1P1P2 (A0R574 whole entry): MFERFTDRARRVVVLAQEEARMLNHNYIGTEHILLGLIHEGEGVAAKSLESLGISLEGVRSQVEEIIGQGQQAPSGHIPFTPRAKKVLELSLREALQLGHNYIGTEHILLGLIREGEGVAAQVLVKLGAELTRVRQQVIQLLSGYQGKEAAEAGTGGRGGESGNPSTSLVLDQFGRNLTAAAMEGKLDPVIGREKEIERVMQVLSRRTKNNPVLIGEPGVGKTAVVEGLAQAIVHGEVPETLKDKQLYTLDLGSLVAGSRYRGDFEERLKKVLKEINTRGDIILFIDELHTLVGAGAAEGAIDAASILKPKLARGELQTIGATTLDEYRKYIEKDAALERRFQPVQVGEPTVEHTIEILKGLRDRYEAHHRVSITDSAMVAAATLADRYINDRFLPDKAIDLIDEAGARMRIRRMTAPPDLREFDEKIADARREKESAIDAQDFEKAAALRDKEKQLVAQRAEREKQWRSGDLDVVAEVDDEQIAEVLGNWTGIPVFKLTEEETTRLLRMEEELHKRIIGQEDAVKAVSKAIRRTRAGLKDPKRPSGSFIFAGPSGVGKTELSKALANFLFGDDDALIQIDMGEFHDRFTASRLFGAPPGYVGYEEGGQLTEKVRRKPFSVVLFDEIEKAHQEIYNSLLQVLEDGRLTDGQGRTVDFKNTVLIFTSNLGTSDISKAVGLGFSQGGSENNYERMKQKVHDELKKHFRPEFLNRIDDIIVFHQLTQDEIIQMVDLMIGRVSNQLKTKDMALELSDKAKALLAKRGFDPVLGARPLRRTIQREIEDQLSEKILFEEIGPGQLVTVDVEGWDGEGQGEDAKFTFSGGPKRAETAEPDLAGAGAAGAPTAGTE

Compound: CC(C)C[C@H]1C(=O)N[C@@H](C(C)C)C(=O)N[C@@H](Cc2cn(C)c3ccccc23)C(=O)N(C)[C@@H](C[C@@H](C)CO)C(=O)N[C@@H](C)C(=O)N[C@@H]([C@H](OC/C=C/CO[C@H](c2ccccc2)[C@@H]2NC(=O)[C@H](C)NC(=O)[C@H](C[C@@H](C)CO)N(C)C(=O)[C@H](Cc3cn(C)c4ccccc34)NC(=O)[C@H](C(C)C)NC(=O)[C@H](CC(C)C)N(C)C(=O)[C@H](C(C)C)NC2=O)c2ccccc2)C(=O)N[C@@H](C(C)C)C(=O)N1C [Compound 17] (I: cyclo(A[X6]V[NMeL]V[Trp(1-Me)][NMeLeu(5-OH,4R)]) / II: cyclo(A[X6]V[NMeL]V[Trp(1-Me)][NMeLeu(5-OH,4R)]); staple (E) I:2-II:2)
- Kd ([1]; SPR (Supplementary Table 1), read-out: KD ClpC1-NTD Mean ± SD): 23 ± 5 nM
- koff ClpC1-NTD ([1]; SPR, single independent measurements): 0.004 s⁻¹
- Kd ([1]; SPR, single independent measurements, read-out: KD ClpC1-NTD): 26.7 nM and 19 nM
- koff ([1]; SPR, single independent measurements, read-out: koff ClpC1-NTD): 0.005 s⁻¹
- Papp A→B (in vitro; Caco-2, CACO permeability PEAB, apical to basolateral): < 2.5 ×10⁻⁶ cm/s
- Papp B→A (in vitro; Caco-2, Caco-2 permeability P (B-A), basolateral to apical): 0.9 ×10⁻⁶ cm/s
- Caco-2 Int. Perm (Caco-2 monolayers): 1.7 10-6 cm s-1
- Microsomal Stability Mouse QH ([2]; Mouse): <24.200%
- Microsomal Stability Mice ([2]; clearance in microsomes): < 24 %Qh
- Microsomal Stability Rat QH ([3]; Rat): <23.100%
- Microsomal Stability Rat ([3]; clearance in microsomes): < 23 %Qh
- Microsomal Stability Human QH ([4]; Human): <24.400%
- Microsomal Stability Human ([4]; clearance in microsomes): < 24 %Qh
- Hepatocyte Stability Mouse QH ([5]; Mouse): 20.539%
- Hepatocyte Mice ([5]; clearance in hepatocytes): 21 %Qh
- Hepatocyte Stability Rat QH ([6]; Rat): 12.036%
- Hepatocyte Rat ([6]; clearance in hepatocytes): 12 %Qh
- 1-Dmax (percent substrate remaining at maximal degradation) [7]: 30.2%
- DC50 ([8]; Measurement 1-4, read-out: DC50, single measurements): > 100000 nM
- DC50 ([8]; mean of the measurements, read-out: DC50, Mean): > 100000 nM
- stability upon storage [9]: compound decomposition upon storage
